# Assay results taken from US20240165311A1, “STEM CELLS FOR USE IN ECMO TECHNOLOGY” (priority 2021, published 2024).
# Legend:
# [1] = system: human PBMCs activated with anti-CD3/anti-CD28; assay: Cytokine analysis after 24 hours of activation (Luminex); assay type: cell-based; conditions: stimulated PBMCs, Prednisolone 125 nM
# Protocol: Cells were washed and the isolated PBMCs were pooled. […] Pooled PBMCs were split into 2 different tubes. […] Cells in tube two was left in PBS. […] See also FIG. 19. Supernatant (24 hours incubation) was analysed for cytokines using the 12-[…]-12 Luminex kit. All reagents, standard and samples were prepared at room temperature and according to manufacturer's instruction. Briefly, 50 μl of standard or sample was added to wells. Microparticles were added to samples and standard and samples were incubated for 2 hours at room temperature on a horizontal orbital shaker (800 rpm). Plate was washed 3× in washing buffer using a magnetic plate. Biotin-antibody was added and incubated dark for 1 hour at room temperature on a horizontal orbital shaker (800 rpm). Plate was washed 3× in washing buffer using a magnetic plate. Streptavidin-PE was added to each well and incubated dark at room temperature on a horizontal orbital shaker (800 rpm) for 30 minutes. Plate was washed 3× in washing buffer using a magnetic plate. Microparticles were resuspended in 100 μl washing buffer, incubated for 2 minutes on a horizontal orbital shaker (800 rpm). Samples were analysed on a Bio-Rad Luminex analyzer.
# [2] = system: human PBMCs activated with anti-CD3/anti-CD28; assay: PBMC:MSC co-culture, proliferation and cell composition after 72 hours of activation (FACS after CFSE labeling); conditions: MSCs in co-culture, Prednisolone 125 nM
# Protocol: (§1) Freshly isolated human PBMCs, pooled from three donors, were activated with anti-CD3/anti-CD28 at 10 μg/ml and 5 μg/ml respectively in presence of MSCs ex vivo for 24 or 72 hours. Following activation, cells were analysed for effects on cellular composition after 24 hours and for effects on cellular composition and cell proliferation using CFSE after 72 hours. In addition, supernatants collected after 24 hours of activation were analysed for cytokine levels using Luminex.
# (§2) Peripheral Blood Mononuclear Cells (PBMCs) were isolated from leucocyte concentrate from three different donors (acquired from Blodcentralen, Lunds Universitetssjukhus, Lund, Sweden) through gradient centrifugation at 400×g for 40 minutes using Ficoll. Red blood cells (RBCs) were lysed using BD Pharmlyse buffer 10× diluted in milliQ water for 3 minutes at room temperature (RT). Cells were washed and the isolated PBMCs were pooled. Cell concentration was determined using a Scepter cell counter (Millipore Merck, MA. USA). Cells were diluted to 1×10^7 cells/ml in PBS. Pooled PBMCs were split into 2 different tubes. Cells in tube 1 was stained with CFSE at 5 μM for 5 minutes (dark, RT). CFSE stained cells were washed with an equal volume of FBS to stop the reaction and washed again with PBS. Cells in tube two was left in PBS.
# (§3) MSCs (donor 1, donor 2, donor 3, and AD-MSC control cells) were provided in 8 different tubes, two for each cell type (in different medias (M3 and M4). All cells (PBMCs and MSCs) were diluted in the two different cell culture media (M3 and M4) to a final concentration of 2*10^6 cells/ml. Media was supplemented with anti-CD28 at 5 μg/ml. Cells were added to anti-CD3 (1 μg/well, 100 μl/well) coated U bottom cell culture plates according to the layout below, 200 μl/well in different PBMC:MSC ratios (1:10, 1:5, 1:2.5, 1:0 and 0:1) with a total amount of cells at 4*10^5 cells/well.
# (§4) Included in the assay were also controls (stimulated and unstimulated PBMCs) and two reference drugs, e.g. cyclosporine (CsA) and Prednisolone (Pred). When plating controls, cells were spun down and diluted in M3 or M4 at 4*10^6 cells/ml, with a total amount of cells at 4*10^5 cells/well. 100 μl PBMCs were added per well. CsA was added at a final concentration of 10 μg/ml and Prednisolone was added at a final concentration of 125 nM (700 μl/well). Medium was added to unstimulated control wells (700 μl/well). Cells were incubated for 24 or 72 hours at 37° C., 5% CO2. See also FIG. 19.
# After 72 hours of incubation, CFSE stained cells were stained with CD4, CD8, CD80, CD206 and CD163 in staining buffer. Briefly, cells were transferred to V bottom plates, centrifuged at 360×g for 2 min. Cells were washed in PBS, centrifuged at 360×g for 2 min at 4° C. Supernatant was flicked off and surface markers were added. Cells were incubated at +4° C. for 20 minutes. After incubation, cells were washed 1× in PBS, centrifuged at 360×g for 2 min at 4° C. Cells were resuspended in PBS and acquired using the Attune Nxt flow cytometer. Compensation was performed using beads—AbC Total Compensation capture beads and negative beads for surface markers. For CFSE compensation, newly CFSE stained cells were used. Since compensation was done using both beads and cells, FSC and SSC were changed and adjusted to beads or cells. […]
# Graphs were performed using Prism 8 for Mac OS X (GraphPad Software, San Diego, CA, USA). […] The inhibitory effect of MSCs on PBMC proliferation was calculated according to the two formulas below: […]
# [3] = system: human PBMCs activated with anti-CD3/anti-CD28; assay: PBMC:MSC co-culture, cell composition after 24 hours of activation (FACS); conditions: Prednisolone 125 nM
# Protocol: as §1, §2, §3, §4
# Following 24 hours of incubation, cells in FACS/Luminex plates were stained with antibodies detecting CD73, CD4, CD8, CD80, CD206, CD163 and PD-1 in staining buffer (PBS supplemented with 1% BSA). Briefly, cells were transferred to V bottom plates and centrifuged at 360×g for 2 min. Supernatant was transferred to a storage plate and put in −20° C. until analysis using Luminex. Cells were washed in PBS, centrifuged at 360×g for 2 min at 4° C. Supernatant was flicked off and antibodies against surface markers were added. Cells were incubated at +4° C. for 20 minutes (dark). After incubation, cells were washed 1× in PBS, centrifuged at 360×g for 2 min at 4° C. Cells were resuspended in PBS and acquired using the Attune Nxt flow cytometer. Compensation was performed using beads—AbC Total Compensation capture beads and negative beads. Since compensation was done using beads, FSC and SSC were changed before analysing samples and adjusted to cells. Lasers were not changed after compensation. 150 μl was analysed from each sample.
structure (smiles),measurement,setting,value
C[C@]12C=CC(=O)C=C1CC[C@@H]1[C@@H]2[C@@H](O)C[C@@]2(C)[C@H]1CC[C@]2(O)C(=O)CO [Prednisolone],IL-6 levels in supernatant,[1]; CsA 10 μg/ml,inhibits
same,"the other analysed cytokines, levels in supernatant","[1]; CsA 10 μg/ml, 12-plex Luminex",No inhibitory effect
same,TNF-α levels in supernatant,"[1]; MSCs at all ratios, CsA 10 μg/ml",inhibits
same,IL12/IL23p40 levels in supernatant,[1]; MSCs at all ratios,inhibits
same,HGF levels in supernatant,"[1]; MSCs dose-dependent, CsA 10 μg/ml",inhibits
same,T helper cells (% ),"[2]; 72 hours of incubation, CsA 10 μg/ml",no effect
same,M1 proliferation (CFSE),"[2]; 72 hours, CsA 10 μg/ml",No effect
same,M2 expression levels,"[2]; 72 hours, CsA 10 μg/ml",no effect
same,M2 proliferation (CFSE),"[2]; 72 hours, CsA 10 μg/ml",No effect
same,M1 expression levels,[2]; 72 hours,no effect
same,M2 macrophage expression,[3]; CsA 10 μg/ml,no effect
same,expression level of M1 macrophages,[3]; CsA 10 μg/ml,no effect
same,macrophage cell composition,[3],did not have an effect
same,T cell activation,"[3]; reference drug treated PBMCs, CsA 10 μg/ml",only slightly inhibits
same,% T helper cells,[3]; reference drug treated PBMCs,higher levels
